# Experimental data reported in PubChem BioAssay AID1259407 (Chemical Carcinogenesis Research Information System (CCRIS), 2018).
# Calls of active or inactive are those of the source. The rule behind the calls is not given here.
# Test system: CCRIS mutagenicity, Ames/micronucleus/aberration tests
# Assay: CCRIS mutagenicity studies
# [1] = Test System: AMES SALMONELLA TYPHIMURIUM, Strain/Indicator: TA98, Metabolic Activation: NONE, Method: STANDARD PLATE
smiles,measurement,setting,value
Cc1ccc(Br)cc1,mutagenic call,"Test System: AMES SALMONELLA TYPHIMURIUM, Strain/Indicator: TA97, Metabolic Activation: HAMSTER, LIVER, S-9, AROCLOR 1254 (10%), Method: PREINCUBATION",inactive; negative
same,mutagenic call,"Test System: AMES SALMONELLA TYPHIMURIUM, Strain/Indicator: TA97, Metabolic Activation: HAMSTER, LIVER, S-9, AROCLOR 1254 (30%), Method: PREINCUBATION",inactive; negative
same,mutagenic call,"Test System: AMES SALMONELLA TYPHIMURIUM, Strain/Indicator: TA97, Metabolic Activation: NONE, Method: PREINCUBATION",inactive; negative
same,mutagenic call,"Test System: AMES SALMONELLA TYPHIMURIUM, Strain/Indicator: TA97, Metabolic Activation: RAT, LIVER, S-9, AROCLOR 1254 (10%), Method: PREINCUBATION",inactive; negative
same,mutagenic call,"Test System: AMES SALMONELLA TYPHIMURIUM, Strain/Indicator: TA97, Metabolic Activation: RAT, LIVER, S-9, AROCLOR 1254 (30%), Method: PREINCUBATION",inactive; negative
same,mutagenic call,"Test System: AMES SALMONELLA TYPHIMURIUM, Strain/Indicator: TA98, Metabolic Activation: HAMSTER, LIVER, S-9, AROCLOR 1254 (10%), Method: PREINCUBATION",inactive; negative
same,mutagenic call,"Test System: AMES SALMONELLA TYPHIMURIUM, Strain/Indicator: TA98, Metabolic Activation: HAMSTER, LIVER, S-9, AROCLOR 1254 (30%), Method: PREINCUBATION",inactive; negative
same,mutagenic call,"Test System: AMES SALMONELLA TYPHIMURIUM, Strain/Indicator: TA98, Metabolic Activation: NONE, Method: PREINCUBATION",inactive; negative
same,mutagenic call,"Test System: AMES SALMONELLA TYPHIMURIUM, Strain/Indicator: TA98, Metabolic Activation: RAT, LIVER, S-9, AROCLOR 1254 (10%), Method: PREINCUBATION",inactive; negative
same,mutagenic call,"Test System: AMES SALMONELLA TYPHIMURIUM, Strain/Indicator: TA98, Metabolic Activation: RAT, LIVER, S-9, AROCLOR 1254 (30%), Method: PREINCUBATION",inactive; negative
same,mutagenic call,"Test System: AMES SALMONELLA TYPHIMURIUM, Strain/Indicator: TA100, Metabolic Activation: HAMSTER, LIVER, S-9, AROCLOR 1254 (10%), Method: PREINCUBATION",inactive; negative
same,mutagenic call,"Test System: AMES SALMONELLA TYPHIMURIUM, Strain/Indicator: TA100, Metabolic Activation: HAMSTER, LIVER, S-9, AROCLOR 1254 (30%), Method: PREINCUBATION",inactive; negative
same,mutagenic call,"Test System: AMES SALMONELLA TYPHIMURIUM, Strain/Indicator: TA100, Metabolic Activation: NONE, Method: PREINCUBATION",inactive; negative
same,mutagenic call,"Test System: AMES SALMONELLA TYPHIMURIUM, Strain/Indicator: TA100, Metabolic Activation: RAT, LIVER, S-9, AROCLOR 1254 (10%), Method: PREINCUBATION",inactive; negative
same,mutagenic call,"Test System: AMES SALMONELLA TYPHIMURIUM, Strain/Indicator: TA100, Metabolic Activation: RAT, LIVER, S-9, AROCLOR 1254 (30%), Method: PREINCUBATION",inactive; negative
same,mutagenic call,"Test System: AMES SALMONELLA TYPHIMURIUM, Strain/Indicator: TA1535, Metabolic Activation: HAMSTER, LIVER, S-9, AROCLOR 1254 (10%), Method: PREINCUBATION",inactive; negative
same,mutagenic call,"Test System: AMES SALMONELLA TYPHIMURIUM, Strain/Indicator: TA1535, Metabolic Activation: HAMSTER, LIVER, S-9, AROCLOR 1254 (30%), Method: PREINCUBATION",inactive; negative
same,mutagenic call,"Test System: AMES SALMONELLA TYPHIMURIUM, Strain/Indicator: TA1535, Metabolic Activation: NONE, Method: PREINCUBATION",inactive; negative
same,mutagenic call,"Test System: AMES SALMONELLA TYPHIMURIUM, Strain/Indicator: TA1535, Metabolic Activation: RAT, LIVER, S-9, AROCLOR 1254 (10%), Method: PREINCUBATION",inactive; negative
same,mutagenic call,"Test System: AMES SALMONELLA TYPHIMURIUM, Strain/Indicator: TA1535, Metabolic Activation: RAT, LIVER, S-9, AROCLOR 1254 (30%), Method: PREINCUBATION",inactive; negative
same,mutagenic call,"Test System: AMES SALMONELLA TYPHIMURIUM, Strain/Indicator: TA1537, Metabolic Activation: HAMSTER, LIVER, S-9, AROCLOR 1254 (30%), Method: PREINCUBATION",inactive; negative
same,mutagenic call,"Test System: AMES SALMONELLA TYPHIMURIUM, Strain/Indicator: TA1537, Metabolic Activation: NONE, Method: PREINCUBATION",inactive; negative
same,mutagenic call,"Test System: AMES SALMONELLA TYPHIMURIUM, Strain/Indicator: TA1537, Metabolic Activation: RAT, LIVER, S-9, AROCLOR 1254 (30%), Method: PREINCUBATION",inactive; negative
NC(=O)N(CCF)N=O,mutagenic call,"Test System: E. COLI B, Strain/Indicator: H/R30R, Metabolic Activation: NONE",active; positive
same,mutagenic call,"Test System: E. COLI B, Strain/Indicator: HS30R, Metabolic Activation: NONE",active; positive
Cc1ccccc1-c1nc2ccccc2o1,mutagenic call,[1],inactive; negative
same,mutagenic call,"Test System: AMES SALMONELLA TYPHIMURIUM, Strain/Indicator: TA98, Metabolic Activation: S-9, Method: STANDARD PLATE",inactive; negative
CCCCNC(=O)c1cc(N)ccc1OC1CCCCC1,mutagenic call,"Test System: Ames Salmonella typhimurium, Strain/Indicator: TA98, Metabolic Activation: None, Method: Preincubation",inactive; negative. data given only in abstract.
same,mutagenic call,"Test System: Ames Salmonella typhimurium, Strain/Indicator: TA98, Metabolic Activation: Rat, Liver, S-9, Phenobarbital and beta-naphthoflavone, Method: Preincubation",active; positive. a hydroxylated form of pa7 appears to be the active component.
same,mutagenic call,"Test System: Ames Salmonella typhimurium, Strain/Indicator: TA100, Metabolic Activation: None, Method: Preincubation",inactive; negative. data given only in abstract.
same,mutagenic call,"Test System: Ames Salmonella typhimurium, Strain/Indicator: TA100, Metabolic Activation: Rat, Liver, S-9, Phenobarbital and beta-naphthoflavone, Method: Preincubation",active; positive. a hydroxylated form of pa7 appears to be the active component.
same,mutagenic call,"Test System: Ames Salmonella typhimurium, Strain/Indicator: TA102, Metabolic Activation: None, Method: Preincubation",inactive; negative. data given only in abstract.
same,mutagenic call,"Test System: Ames Salmonella typhimurium, Strain/Indicator: TA1535, Metabolic Activation: None, Method: Preincubation",inactive; negative. data given only in abstract.
same,mutagenic call,"Test System: Ames Salmonella typhimurium, Strain/Indicator: TA1537, Metabolic Activation: None, Method: Preincubation",inactive; negative. data given only in abstract.
O=S(=O)(Nc1ccc(Cl)cc1Cl)c1cccc2cccnc12,mutagenic call,[1],inactive; negative
same,mutagenic call,"Test System: AMES SALMONELLA TYPHIMURIUM, Strain/Indicator: TA98, Metabolic Activation: RAT, LIVER, S-9, AROCLOR 1254, Method: STANDARD PLATE",inactive; negative
same,mutagenic call,"Test System: AMES SALMONELLA TYPHIMURIUM, Strain/Indicator: TA100, Metabolic Activation: NONE, Method: STANDARD PLATE",inactive; negative
same,mutagenic call,"Test System: AMES SALMONELLA TYPHIMURIUM, Strain/Indicator: TA100, Metabolic Activation: RAT, LIVER, S-9, AROCLOR 1254, Method: STANDARD PLATE",inactive; negative
same,mutagenic call,"Test System: AMES SALMONELLA TYPHIMURIUM, Strain/Indicator: TA1535, Metabolic Activation: NONE, Method: STANDARD PLATE",inactive; negative
same,mutagenic call,"Test System: AMES SALMONELLA TYPHIMURIUM, Strain/Indicator: TA1535, Metabolic Activation: RAT, LIVER, S-9, AROCLOR 1254, Method: STANDARD PLATE",inactive; negative
same,mutagenic call,"Test System: AMES SALMONELLA TYPHIMURIUM, Strain/Indicator: TA1537, Metabolic Activation: NONE, Method: STANDARD PLATE",inactive; negative
same,mutagenic call,"Test System: AMES SALMONELLA TYPHIMURIUM, Strain/Indicator: TA1537, Metabolic Activation: RAT, LIVER, S-9, AROCLOR 1254, Method: STANDARD PLATE",inactive; negative
CCCCBr,mutagenic call,"End Point: In vitro micronucleus, Test System: Chinese Hamster Ovary (CHO-WBL) cells, Metabolic Activation: None",inactive; negative
same,mutagenic call,"Test System: AMES SALMONELLA TYPHIMURIUM, Strain/Indicator: TA100, Metabolic Activation: NONE, Method: DESICCATOR",active; positive
same,mutagenic call,"Test System: AMES SALMONELLA TYPHIMURIUM, Strain/Indicator: TA100, Metabolic Activation: RAT, LIVER, S-9, AROCLOR 1254, Method: DESICCATOR",active; positive
same,mutagenic call,"Test System: AMES SALMONELLA TYPHIMURIUM, Strain/Indicator: TA1535, Metabolic Activation: NONE, Method: DESICCATOR",active; positive
same,mutagenic call,"Test System: AMES SALMONELLA TYPHIMURIUM, Strain/Indicator: TA1535, Metabolic Activation: RAT, LIVER, S-9, AROCLOR 1254, Method: DESICCATOR",active; positive
CCCOC(=O)NO,mutagenic call,"Test System: E. COLI, Strain/Indicator: WP2 UVRA, Metabolic Activation: NONE, Method: FLUCTUATION TEST",active; positive
